Measurements as given in patent US8389513B2, “2-amino-5,5-difluoro-5,6-dihydro-4H-[1,3]oxazin-4-yl)-phenyl]-amides” (Hoffmann-La Roche Inc., priority 2009, dated 2013).

Legend:
BACE1 = biological target: T1, BACE1 (Homo sapiens, UniProt P56817); test: Cellular Aβ-lowering assay (Aβ40 ELISA); assay type: cell-based; details: HEK293 cells stably expressing human APP695; Aβ40 in culture supernatant; read-out: BACE1 cell act. Aβ40 IC50
T1 construct: Human HEK293 cells which are stably transfected with a vector expressing a cDNA of the human APP wt gene (APP695); endogenous in cells; host or cells: HEK293 stably transfected with human APP695 wt
Method: Cellular Aβ-Lowering Assay:
Human HEK293 cells which are stably transfected with a vector expressing a cDNA of the human APP wt gene (APP695) were used to assess the potency of the compounds in a cellular assay. The cells were seeded in 96-well microtiter plates in cell culture medium (Iscove, plus 10% (v/v) fetal bovine serum, glutamine, penicillin/streptomycin) to about 80% confluence and the compounds were added at a 10× concentration in 1/10 volume of medium without FCS containing 8% DMSO (final concentration of DMSO was kept at 0.8% v/v). After 18-20 hrs incubation at 37° C. and 5% CO2 in a humidified incubator the culture supernatant was harvested for the determination of Aβ40 concentrations. […] Subsequently the wells of the microtiter plate were washed extensively with Tris-buffered saline containing 0.05% Tween 20 and the assay was developed with tetramethylbenzidine/H2O2 in citric acid buffer. After stopping the reaction with one volume 1 NH2SO4 the reaction was measured in an ELISA reader at 450 nm wavelength. The concentrations of Aβ in the culture supernatants were calculated from a standard curve obtained with known amounts of pure Aβ peptide.

BACE2 = biological target: T2, BACE2 (Rattus norvegicus, UniProt Q6IE75); test: Assay for BACE inhibition by measuring cellular TMEM27 cleavage; assay type: cell-based; details: INS-TMEM27 cells (INS1e-derived); shed TMEM27 by ELISA; read-out: BACE2 cell act. IC50
T2 construct: endogenous cellular BACE2 in the Ins1e rat cell line; endogenous in cells; host or cells: INS-TMEM27 (INS1e-derived rat cell line with TetOn-inducible full-length hTMEM27)
T2 sequence (Q6IE75 63-514): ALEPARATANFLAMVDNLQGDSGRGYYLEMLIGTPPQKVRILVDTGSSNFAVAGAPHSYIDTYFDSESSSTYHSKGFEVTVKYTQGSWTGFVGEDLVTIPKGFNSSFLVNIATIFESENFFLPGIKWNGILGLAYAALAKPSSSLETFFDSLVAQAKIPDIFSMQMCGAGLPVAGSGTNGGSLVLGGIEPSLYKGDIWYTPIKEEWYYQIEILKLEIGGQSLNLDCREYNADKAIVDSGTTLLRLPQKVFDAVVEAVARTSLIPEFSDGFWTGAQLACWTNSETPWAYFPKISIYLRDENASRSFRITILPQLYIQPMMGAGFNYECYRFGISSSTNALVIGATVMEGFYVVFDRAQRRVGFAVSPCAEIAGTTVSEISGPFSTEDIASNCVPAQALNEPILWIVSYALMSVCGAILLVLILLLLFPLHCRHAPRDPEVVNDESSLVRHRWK
Excerpt: Assay for BACE Inhibition by Measuring Cellular TMEM27 Cleavage:
The assay uses the principle of inhibition of human TMEM27 cleavage by endogenous cellular BACE2 in the Ins1e rat cell line and shedding from the cell surface into the culture medium, followed by detection in an ELISA assay. Inhibition of BACE2 prevents the cleavage and shedding in a dose-dependent manner.
The stable cell line “INS-TMEM27” represents an INS1e-derived cell line with inducible expression (using the TetOn system) of full-length hTMEM27 in a doxycycline-dependent manner. The cells are cultured throughout the experiment in RPMI1640+Glutamax (Invitrogen) Penicillin/Streptomycin, 10% Fetal bovine serum, […] pyruvate, […] beta-mercatptoethanol, 100 micrograms/ml G418 and 100 microgram/ml hygromycin and are grown inadherent culture at 37° C. in a standard CO2 cell culture incubator. INS-TMEM27 cells are seeded in 96-well plates. After 2 days in culture, BACE2 inhibitor is added in a range of concentrations as required by the assay and after a further two hours, doxycycline is added to a final concentration of 500 ng/ml. The cells are incubated for a further 46 hours and the supernatant harvested for detection of shed TMEM27.
An ELISA assay (using a pair of mouse anti-human-TMEM27 antibodies, raised against the extracellular domain of TMEM27) is used for detection of TMEM27 in the culture medium. An EC50 for BACE2 inhibition is calculated using the ELISA readout for each inhibitor concentration with standard curve-fitting software such as XLFit for the Excel spreadsheet program.

T1 sequence (P56817 46-501): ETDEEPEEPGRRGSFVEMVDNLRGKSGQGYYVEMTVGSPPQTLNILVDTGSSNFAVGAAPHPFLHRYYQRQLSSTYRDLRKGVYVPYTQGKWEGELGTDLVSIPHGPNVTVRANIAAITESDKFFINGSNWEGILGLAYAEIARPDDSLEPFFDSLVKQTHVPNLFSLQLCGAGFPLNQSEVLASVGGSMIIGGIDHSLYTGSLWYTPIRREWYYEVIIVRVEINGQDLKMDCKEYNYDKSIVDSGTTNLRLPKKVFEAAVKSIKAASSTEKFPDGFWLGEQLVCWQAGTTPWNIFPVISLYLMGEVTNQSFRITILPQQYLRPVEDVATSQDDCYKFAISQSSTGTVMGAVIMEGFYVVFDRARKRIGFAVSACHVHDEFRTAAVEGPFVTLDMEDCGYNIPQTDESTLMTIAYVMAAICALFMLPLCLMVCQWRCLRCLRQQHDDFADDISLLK

| Compound | IC50 (BACE1) [nM] | IC50 (BACE2) [nM] |
| --- | --- | --- |
| C[C@]1(c2cc(NC(=O)C3CC3(F)F)ccc2F)N=C(N)OCC1(F)F (mixture of isomers) [Example 74, (RS)-2,2-Difluoro-cyclopropanecarboxylic acid [3-((R)-2-amino-5,5-difluoro-4-methyl-5,6-dihydro-4H-[1,3]oxazin-4-yl)-4-fluoro-phenyl]-amide] | 510 | 590 |
| C[C@]1(c2cc(NC(=O)c3ccc(F)cn3)ccc2F)N=C(N)OCC1(F)F [Example 2, 5-Fluoro-pyridine-2-carboxylic acid [3-((R)-2-amino-5,5-difluoro-4-methyl-5,6-dihydro-4H-[1,3]oxazin-4-yl)-4-fluoro-phenyl]-amide] |  | 56 |
| C[C@]1(c2cc(NC(=O)c3ncccc3Cl)ccc2F)N=C(N)OCC1(F)F [Example 3, 3-Chloro-pyridine-2-carboxylic acid [3-((R)-2-amino-5,5-difluoro-4-methyl-5,6-dihydro-4H-[1,3]oxazin-4-yl)-4-fluoro-phenyl]-amide] | 87 | 52 |
| C[C@]1(c2cc(NC(=O)c3ncc(F)cc3F)ccc2F)N=C(N)OCC1(F)F [Example 4, 3,5-Difluoro-pyridine-2-carboxylic acid [3-((R)-2-amino-5,5-difluoro-4-methyl-5,6-dihydro-4H-[1,3]oxazin-4-yl)-4-fluoro-phenyl]-amide] | 31 | 26 |
| C[C@]1(c2cc(NC(=O)c3ncccc3C(F)(F)F)ccc2F)N=C(N)OCC1(F)F [Example 6, 3-Trifluoromethyl-pyridine-2-carboxylic acid [3-((R)-2-amino-5,5-difluoro-4-methyl-5,6-dihydro-4H-[1,3]oxazin-4-yl)-4-fluoro-phenyl]-amide] | 180 | 330 |
| C[C@]1(c2cc(NC(=O)c3ncc(F)cc3Cl)ccc2F)N=C(N)OCC1(F)F [Example 7, 3-Chloro-5-fluoro-pyridine-2-carboxylic acid [3-((R)-2-amino-5,5-difluoro-4-methyl-5,6-dihydro-4H-[1,3]oxazin-4-yl)-4-fluoro-phenyl]-amide] | 41 | 49 |
| C[C@]1(c2cc(NC(=O)c3ccccn3)ccc2F)N=C(N)OCC1(F)F [Example 9, Pyridine-2-carboxylic acid [3-((R)-2-amino-5,5-difluoro-4-methyl-5,6-dihydro-4H-[1,3]oxazin-4-yl)-4-fluoro-phenyl]-amide] |  | 82 |
| C[C@]1(c2cc(NC(=O)c3ncccc3F)ccc2F)N=C(N)OCC1(F)F [Example 10, 3-Fluoro-pyridine-2-carboxylic acid [3-((R)-2-amino-5,5-difluoro-4-methyl-5,6-dihydro-4H-[1,3]oxazin-4-yl)-4-fluoro-phenyl]-amide] | 87 | 52 |
| C[C@]1(c2cc(NC(=O)c3ncc(Cl)cn3)ccc2F)N=C(N)OCC1(F)F [Example 12, 5-Chloro-pyrimidine-2-carboxylic acid [3-((R)-2-amino-5,5-difluoro-4-methyl-5,6-dihydro-4H-[1,3]oxazin-4-yl)-4-fluoro-phenyl]-amide] | 23 | 69 |
| Cc1cc(Cl)cnc1C(=O)Nc1ccc(F)c([C@@]2(C)N=C(N)OCC2(F)F)c1 [Example 13, 5-Chloro-3-methyl-pyridine-2-carboxylic acid [3-((R)-2-amino-5,5-difluoro-4-methyl-5,6-dihydro-4H-[1,3]oxazin-4-yl)-4-fluoro-phenyl]-amide] |  | 24 |
| C[C@]1(c2cc(NC(=O)c3ccc(OCC(F)(F)F)cn3)ccc2F)N=C(N)OCC1(F)F [Example 14, 5-(2,2,2-Trifluoro-ethoxy)-pyridine-2-carboxylic acid [3-((R)-2-amino-5,5-difluoro-4-methyl-5,6-dihydro-4H-[1,3]oxazin-4-yl)-4-fluoro-phenyl]-amide] | 290 | 19200 |
| C[C@]1(c2cc(NC(=O)c3ncc(Cl)cc3F)ccc2F)N=C(N)OCC1(F)F [Example 15, 5-Chloro-3-fluoro-pyridine-2-carboxylic acid [3-((R)-2-amino-5,5-difluoro-4-methyl-5,6-dihydro-4H-[1,3]oxazin-4-yl)-4-fluoro-phenyl]-amide] | 9 | 52 |
| C[C@]1(c2cc(NC(=O)c3ncc(C(F)(F)F)cn3)ccc2F)N=C(N)OCC1(F)F [Example 16, 5-Trifluoromethyl-pyrimidine-2-carboxylic acid [3-((R)-2-amino-5,5-difluoro-4-methyl-5,6-dihydro-4H-[1,3]oxazin-4-yl)-4-fluoro-phenyl]-amide] | 91 | 1540 |
| C[C@]1(c2cc(NC(=O)c3cnc(C(F)(F)F)cn3)ccc2F)N=C(N)OCC1(F)F [Example 17, 5-Trifluoromethyl-pyrazine-2-carboxylic acid [3-((R)-2-amino-5,5-difluoro-4-methyl-5,6-dihydro-4H-[1,3]oxazin-4-yl)-4-fluoro-phenyl]-amide] | 86 | 1220 |
| Cn1cc(Cl)c(C(=O)Nc2ccc(F)c([C@@]3(C)N=C(N)OCC3(F)F)c2)n1 [Example 18, 4-Chloro-1-methyl-1H-pyrazole-3-carboxylic acid [3-((R)-2-amino-5,5-difluoro-4-methyl-5,6-dihydro-4H-[1,3]oxazin-4-yl)-4-fluoro-phenyl]-amide] |  | 15 |
| CC1(C)OC(N)=N[C@](C)(c2cc(NC(=O)c3ccc(Cl)cn3)ccc2F)C1(F)F [Example 19, 5-Chloro-pyridine-2-carboxylic acid [3-((R)-2-amino-5,5-difluoro-4,6,6-trimethyl-5,6-dihydro-4H-[1,3]oxazin-4-yl)-4-fluoro-phenyl]-amide] | 70 | 120 |
| CC1(C)OC(N)=N[C@](C)(c2cc(NC(=O)c3ncc(Cl)cc3Cl)ccc2F)C1(F)F [Example 23, 3,5-Dichloro-pyridine-2-carboxylic acid [3-((R)-2-amino-5,5-difluoro-4,6,6-trimethyl-5,6-dihydro-4H-[1,3]oxazin-4-yl)-4-fluoro-phenyl]-amide] | 11 | 66 |
| CC1(C)OC(N)=N[C@](C)(c2cc(NC(=O)c3ncc(Cl)cc3F)ccc2F)C1(F)F [Example 24, 5-Chloro-3-fluoro-pyridine-2-carboxylic acid [3-((R)-2-amino-5,5-difluoro-4,6,6-trimethyl-5,6-dihydro-4H-[1,3]oxazin-4-yl)-4-fluoro-phenyl]-amide] | 12 | 70 |
| CC1(C)OC(N)=N[C@](C)(c2cc(NC(=O)c3ccc(C(F)(F)F)cn3)ccc2F)C1(F)F [Example 25, 5-Trifluoromethyl-pyridine-2-carboxylic acid [3-((R)-2-amino-5,5-difluoro-4,6,6-trimethyl-5,6-dihydro-4H-[1,3]oxazin-4-yl)-4-fluoro-phenyl]-amide] | 25 | 2250 |
| C[C@]1(c2cc(NC(=O)c3ccn(C(F)F)n3)ccc2F)N=C(N)OCC1(F)F [Example 64, 1-Difluoromethyl-1H-pyrazole-3-carboxylic acid [3-((R)-2-amino-5,5-difluoro-4-methyl-5,6-dihydro-4H-[1,3]oxazin-4-yl)-4-fluoro-phenyl]-amide] |  | 13 |
